In EP0624575A1, “Substituted indoles and pharmaceutical compositions containing them” (ADIR ET COMPAGNIE, priority 1993, dated 1994):

Columns and labels:
[1] = system: LDL natives; assay: Protection against LDL oxidation (Cu2+ system, 24 h incubation, FPLC analysis); type: biochemical; conditions: 10⁻⁵ M, 24 h incubation with native LDL and Cu²⁺ system, compared with probucol
Protocol: La capacité des composés de l'invention à diminuer les proportions de LDL oxydées a été mesurée de la façon suivante : on réalise une incubation de 24 heures regroupant des LDL natives, un système Cu²⁺ générateur de radicaux libres et les composés à tester. Les résultats sont obtenus après analyse du milieu par une technique chromatographique haute performance : la FPLC (Fast Protein Liquid Chromatography). Le pouvoir protecteur du composé testé est déterminé après comparaison du chromatogramme obtenu avec celui du témoin positif de référence : le probucol. Il apparaît clairement que les composés de l'invention ont un pouvoir protecteur très important. A titre de comparaison, pour une concentration de 10⁻⁵ M, le niveau de protection obtenu pour les composés de l'invention dépasse celui du probucol.

[2] = system: homogénats de cerveaux de rats; assay: Induced lipid peroxidation (Fe2+ - ascorbate) in rat brain homogenates (MDA); type: biochemical; conditions: ratio versus probucol, induced peroxidation (Fe²⁺ - ascorbate)
Protocol: L'action des composés utilisés selon l'invention, susceptibles de piéger les radicaux ·OH, a été étudiée d'une part, sur la peroxydation spontanée des lipides et d'autre part, sur la peroxydation induite par le système Fe²⁺ - ascorbate (10 µM - 250 µM), et ce, sur des homogénats de cerveaux de rats.
Lors de la mesure de la peroxydation lipidique spontanée, les homogénats de cerveau de rats sont placés en présence ou en absence des composés à tester durant 60 minutes à 37°C. La réaction est arrêtée à 0°C et le dosage du malondialdéhyde est effectué à l'aide d'acide thiobarbiturique. La peroxydation lipidique est déterminée par les substances réagissant avec l'acide thiobarbiturique exprimées en nanomoles de malondialdéhyde (MDA). Les concentrations des composés testés inhibant de 50 % la peroxydation du substrat sont calculées. Il est apparu que les composés de formule (I) utilisés selon l'invention possèdent une activité antiperoxydante particulièrement intense puisqu'ils possèdent une activité antiperoxydante nettement plus importante que le probucol et la vitamine E, qui est l'antioxydant naturel de l'organisme humain.
Lors de la mesure de la peroxydation lipidique induite, la méthodologie est identique à celle précédemment décrite à l'exception de l'addition à l'homogénat du système inducteur de radicaux : Fe²⁺ - ascorbate. […]

[3] = system: granulocytes de lapins; assay: Anti-inflammatory activity: leukotriene B4 release from A 23187-stimulated granulocytes (RIA); type: cell-based; conditions: stimulation by calcium ionophore A 23187, mean of 3 independent measurements, versus control, read-out: pouvoir inhibiteur (leucotriènes B₄ libérés)
Description: Les mesures sont réalisées sur granulocytes de lapins. Les granulocytes isolés sont stimulés in vitro par l'ionophore calcique (A 23187). Les leucotriènes B₄ libérés dans le milieu extracellulaire sont mesurés par Radio Immuno Assay (RIA). Les résultats (moyennes de 3 mesures indépendantes) sont exprimés en pourcentage d'inhibition par rapport au témoin.

[4] = system: agrégation plaquettaire (plasma de lapin enrichi en plaquettes); assay: Anti-aggregant activity: platelet aggregation induced by sodium arachidonate; type: cell-based; conditions: aggregation induced by arachidonate de sodium (50 µg/ml); rabbit platelet-rich plasma; read-out: concentration minimale active
Protocol: Dans cette étude, les composés de l'invention (100 µg/ml) ont été testés dans le but de quantifier leur pouvoir d'inhibition du maximum non-réversible d'agrégation plaquettaire (plasma de lapin enrichi en plaquettes) induite par l'arachidonate de sodium (50 µg/ml). Ainsi, la concentration minimale active pour le composé de l'exemple 17 est de 30 µM.

`CCCCN(C(=O)c1cc2cc(O)ccc2n1C)c1ccccc1` [exemple 17, N-(n-Butyl)-N-phényl-(5-hydroxy-1-méthylindol-2-yl)carboxamide] was tested, and the “pouvoir protecteur vis-à-vis d'un système oxydant des LDL” value [1] was “pratiquement total”, the Ratio probucol [2] was 6 and the inhibition at 10 µM [3] was 51%. For the same compound, the minimal effective concentration [4] was 30 µM.
